“Also recorded” adds a separate entry of the source.
What was measured:
Type in all cases: cell-based, human
phSC cells [1] = test: Particle-induced transcellular pore formation, fluorescent pore-label assay, cells seeded above microparticles
Protocol: Substrate preparation and cell culture for transcellular pore formation using microparticles: Round cover glasses (12 mm in diameter) were employed for SEM imaging, while 16-well chambered cover glasses (16 wells per cover glass; Invitrogen C37000) were utilized for other experiments. Glass substrates underwent plasma treatment (Harrick Plasma, PDC-32G) for 2 minutes at high RF power and were immediately incubated at 37° C. with 0.5 mg/mL biotinylated gelatin for 24 hours. After three washes with PBS, the cover glasses were incubated with microbial transglutaminase (0.001 unit/mL in 20 mM Tris-HCl and 150 mM NaCl, pH 8; Sigma-Aldrich SAE0159) at 37° C. for 24 hours to crosslink the gelatin coating and enhance phSC cell attachment on the substrate. Following three additional washes with PBS, the cover glasses were UV sterilized in a biosafety cabinet for 1 hour. Carboxyl ferromagnetic particles (4.0-4.9 μm, Spherotech, Inc. CFM-40-10) were vortexed and added to the substrate. The particles were allowed to randomly sink onto the substrate to achieve an approximate density of 1 particle per 1000 μm^2. Non-adherent particles were removed by washing three times with PBS, followed by seeding phSC cells (passage 4-6; 7.5 k cells/cm^2). The cells were then cultured for 2 to 7 hours in DMEM supplemented with 1% FBS and 1×PSG at 37° C. with 5% CO2. The culture time was chosen as the minimum duration necessary for the cells to adopt a spread configuration similar to that observed in situ. Note that this culture time (2 to 7 hours) varied for the tested cell strains. Alternatively, in some experiments, apical-to-basal cell stretching was achieved by adding particles above fully spread cells. High-content screening of transcellular pores: Upon achieving full cell spreading over particles, cells were incubated with the first pore label for 5 minutes, followed by three washes with cell media. Subsequently, cells were either exposed to a magnetic field (as detailed below) or incubated solely with cell media for 10 minutes. Afterward, the cells were incubated with the second pore label (5 μg/mL; Streptavidin, Alexa Fluor 647 Conjugate, Invitrogen S32357) for 5 minutes, all at 37° C. The cells were then immediately washed three times with PBS, fixed with 4% formaldehyde for 15 minutes at room temperature, washed three times with PBS, permeabilized with 0.1% Triton X for 15 minutes, and stained with NucBlue Fixed Cell Ready Probes Reagent (6 drops/mL; Invitrogen R37606) and Alexa Fluor 555 Phalloidin (0.165 μM; Invitrogen R34055) for 1 hour at room temperature. Following these steps, cells were washed three times with PBS, the cover glass was detached from the rest of the 16-well chambered system, mounted on another cover glass using Prolong Gold Antifade Mountant (Invitrogen P10144), and stored in the dark until examination with a Leica DM6 B upright microscope system. Fluorescent and brightfield images were acquired using a 10× objective to generate tile scans for each well. To exclude cells near the well edges, a 4 mm diameter circle was delineated at the center of each image, and the analysis was restricted to the cells within this 4 mm circle. The number of cells, particles beneath cells, and pores were manually counted. Pores incidence rate was quantified as the number of pores associated with particles divided by the number of particles, multiplied by 100. […]

phSC cells [2] = test: Transcellular pore detection with particles placed on top of cells (apical-to-basal deformation); settings: 10 μM, instead of magnetic field, FIGS. 14A-14B
Protocol: Substrate preparation and cell culture for transcellular pore formation using microparticles: Round cover glasses (12 mm in diameter) were employed for SEM imaging, while 16-well chambered cover glasses (16 wells per cover glass; Invitrogen C37000) were utilized for other experiments. Glass substrates underwent plasma treatment (Harrick Plasma, PDC-32G) for 2 minutes at high RF power and were immediately incubated at 37° C. with 0.5 mg/mL biotinylated gelatin for 24 hours. After three washes with PBS, the cover glasses were incubated with microbial transglutaminase (0.001 unit/mL in 20 mM Tris-HCl and 150 mM NaCl, pH 8; Sigma-Aldrich SAE0159) at 37° C. for 24 hours to crosslink the gelatin coating and enhance phSC cell attachment on the substrate. […]
High-content screening of transcellular pores: Upon achieving full cell spreading over particles, cells were incubated with the first pore label for 5 minutes, followed by three washes with cell media. […] The cells were then immediately washed three times with PBS, fixed with 4% formaldehyde for 15 minutes at room temperature, washed three times with PBS, permeabilized with 0.1% Triton X for 15 minutes, and stained with NucBlue Fixed Cell Ready Probes Reagent (6 drops/mL; Invitrogen R37606) and Alexa Fluor 555 Phalloidin (0.165 μM; Invitrogen R34055) for 1 hour at room temperature. […]

phSC cells [3] = test: Cell stiffness measurement by atomic force microscopy (AFM)
Protocol: Cell stiffness measurement: SC cells were seeded on coverslips and grown to confluence. An MFD-3D AFM (Asylum Research, Santa Barbara, CA, USA) was used to make stiffness measurements using silicon nitride cantilevers with an attached borosilicate sphere (diameter=10 μm; nominal spring constant=0.1 N/m; Novascan Technologies, Inc., Ames, IA, USA). […] The indentation depth was limited to 400 nm to avoid substrate effects and the tip velocity was adjusted to 800 nm/s to avoid viscous effects^37. 5 measurements/cell were conducted, and at least 5 cells were measured/cell strain. Data from AFM measurements were fitted to the Hertz model to calculate the Young's Modulus of the cells.

phSC cells [4] = test: Cell area after treatment (fluorescent images of actin network and nuclei); settings: Y-27632 treatments; nSC74, nSC75, nSC82, nSC89; 2-way ANOVA; FIGS. 12A-12B
Protocol: Treatment with Y-27632 ROCK inhibitor: Cells were seeded above microparticles in 16-well chambered slides in DMEM supplemented with 10% FBS, 1×PSG and allowed to spread for 3.5 hours at 37° C. with 5% CO2. Subsequently, the cells were incubated with 10 μM Y-27632 (Sigma, Y0503) in DMEM supplemented with 1% FBS, 1×PSG for 30 minutes, followed by the first pore label for 5 minutes. Following incubation, the cells were washed, fixed, stained for nuclei and actin filaments, and imaged as described in the section titled “High-content screening of transcellular pores.”

[5] = primary human SC cells, summary statement without cell strain

| SMILES | particle-induced pore formation (phSC cells [1]; Y-27632 treatment, four normal cell strains nSC74, nSC75, nSC82, nSC89, FIG. 6D) | pore formation (phSC cells [1]; [5]) | transcellular pores at particle locations (phSC cells [2]) | cell stiffness (phSC cells [3]; Y-27632 treatment, four normal cell strains nSC74, nSC75, nSC82, nSC89, FIG. 6C) | cell area (phSC cells [4]) | pore formation (phSC cells [1]; SIP treatment, nSC74, FIG. 13B) | pore formation (phSC cells [1]; SIP treatment, nSC75 and nSC89, FIG. 13B) | cell stiffness (phSC cells [3]; SIP treatment, nSC74, FIG. 13A) | cell stiffness (phSC cells [3]; SIP treatment, nSC75 and nSC89, FIG. 13A) |
| --- | --- | --- | --- | --- | --- | --- | --- | --- | --- |
| C[C@@H](N)[C@H]1CC[C@H](C(=O)Nc2ccncc2)CC1 [Y-27632] | increased pore formation in a dose-dependent manner | increased pore formation | did not induce transcellular pores; also recorded: failed to induce transcellular pores | decreased cell stiffness | did not significantly affect; also recorded: no significant effect |  |  |  |  |
| CCCCCCCCCCCCC/C=C/[C@@H](O)[C@@H](N)COP(=O)(O)O [SIP, sphingosine-1-phosphate] |  | decreased pore formation |  |  |  | did not have a significant effect; also recorded: did not affect | decreased pore formation; also recorded: decrease | did not have a significant effect; also recorded: did not affect | increased cell stiffness; also recorded: significant increase |
